pIC50: −log10 of the molar value.
Target: IDO1 (Homo sapiens, UniProt P14902)
Assay: IDO1 Cellular Assay in Hela Cells Stimulated with IFNγ
Format: cell-based
Conditions: IFNγ 100 ng/mL, 300 uM L-tryptophan, about 48 hours, fluorescence readout, read-out: IDO1 HELA Cell Assay, IC50
Experimental: Biological Assays IDO1 Cellular Assay in Hela Cells Stimulated with IFNγ
Hela cells were cultured in complete Hela culture medium ([…], 10% heat-inactivated fetal bovine serum) and expanded to about 1×10^9 cells. The cells were then collected and frozen down at 10×10^6 cells/vial in 1 mL frozen medium (90% complete Hela culture medium, 10% DMSO).
Compounds to be tested were serially diluted in ten 3-fold steps in DMSO starting from 10 mM DMSO stocks in Echo low volume plate(s). Compound dilutions or DMSO alone were then dispensed from the dilution plate(s) into Greiner black 384-well assay plate(s) (catalog #781086, 50 nL/well) using an Echo 550 acoustic liquid handler (Labcyte).
Frozen Hela cells were thawed and transferred into Hela assay medium (99% complete Hela culture medium, 1% Pen/Strep) with 20 mL medium/vial of cells. The cells were spun down at 250 g in a table top centrifuge for 5 min and suspended in same volume of Hela assay medium. […] Sterile L-tryptophan were added to the cells with final concentration of 300 uM L-tryptophan. A small aliquot (2 mL/plate) of Hela cells were set aside and were not treated with IFNγ, to serve as the Max-E control. The rest of Hela cells were added with sterile IFNγ (Cat #285-IF, R & D systems) with a final concentration of 100 ng/mL.
Hela cells with and without IFNγ were dispensed to the respective wells of 384-well assay plates containing the compounds. The plates were incubated for about 48 hours at a 37° C., 5% CO2 incubator. Afterwards, 12 μL of 0.5 M methyl isonipecotate in dimethyl sulfoxide were added into each well and the plates were sealed and incubated at 37° C. without CO2 overnight. The plates were centrifuged for 1 min at 200×g. The resulting fluorescence was measured in a Spectramax plate reader (Molecular Devices) with a 400 nm excitation filter and a 510 nm emission filter.
Potencies were calculated by […] least squares fit to the four parameter logistic IC50 equation.

Chain of IDO1 (P14902 whole entry): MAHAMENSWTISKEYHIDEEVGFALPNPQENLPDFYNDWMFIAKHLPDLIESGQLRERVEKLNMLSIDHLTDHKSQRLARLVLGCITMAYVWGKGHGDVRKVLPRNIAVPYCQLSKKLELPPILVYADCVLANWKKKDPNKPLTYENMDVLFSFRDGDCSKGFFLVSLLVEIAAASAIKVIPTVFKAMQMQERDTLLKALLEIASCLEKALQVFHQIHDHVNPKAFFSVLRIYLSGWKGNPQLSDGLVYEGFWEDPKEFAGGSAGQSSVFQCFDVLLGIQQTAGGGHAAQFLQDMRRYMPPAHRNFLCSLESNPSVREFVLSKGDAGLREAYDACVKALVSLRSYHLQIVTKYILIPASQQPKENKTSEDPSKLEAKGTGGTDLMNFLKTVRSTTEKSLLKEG

Row | pIC50 | SMILES
1 | 8.64 | Cc1ccc(C(=O)NC23CC([C@@H](C)C(=O)Nc4ccc(F)cc4)(C2)C3)cc1Cl [Example 44, 3-chloro-N-[3-[(1R)-2-(4-fluoroanilino)-1-methyl-2-oxo-ethyl]-1-bicyclo[1.1.1]pentanyl]-4-methyl-benzamide]
2 | 7.86 | C[C@H](C(=O)Nc1ccc(F)cc1)C12CC(NC(=O)c3cncc(C(F)(F)F)c3)(C1)C2 [Example 68, N-[3-[(1S)-2-(4-fluoroanilino)-1-methyl-2-oxo-ethyl]-1-bicyclo[1.1.1]pentanyl]-5-(trifluoromethyl)pyridin-1-ium-3-carboxamide]
3 | 6.91 | Cc1c(Cl)cccc1C(=O)NC12CC([C@H](C)C(=O)Nc3ccc(F)cc3)(C1)C2 [Example 53, 3-chloro-N-[3-[(1S)-2-(4-fluoroanilino)-1-methyl-2-oxo-ethyl]-1-bicyclo[1.1.1]pentanyl]-2-methyl-benzamide]
4 | 8.70 | C[C@@H](C(=O)Nc1ccc(F)cc1)C12CC(NC(=O)c3cccc(Cl)c3F)(C1)C2 [Example 38, 3-chloro-2-fluoro-N-[3-[(1R)-2-(4-fluoroanilino)-1-methyl-2-oxo-ethyl]-1-bicyclo[1.1.1]pentanyl]benzamide]
5 | 6.38 | CCc1cc(C(=O)NC23CC(C(C)C(=O)Nc4ccc(F)cc4)(C2)C3)n(C)n1 (stereo not shown) [Example 141, 5-ethyl-N-[3-[2-(4-fluoroanilino)-1-methyl-2-oxo-ethyl]-1-bicyclo[1.1.1]pentanyl]-2-methyl-pyrazole-3-carboxamide]
6 | 6.61 | CC(C(=O)Nc1ccc(F)cc1)C12CC(NC(=O)c3ccn(C(F)F)n3)(C1)C2 (stereo not shown) [Example 131, 1-(difluoromethyl)-N-[3-[2-(4-fluoroanilino)-1-methyl-2-oxo-ethyl]-1-bicyclo[1.1.1]pentanyl]pyrazole-3-carboxamide]
7 | 6.82 | C[C@H](C(=O)Nc1ccc(F)cc1)C12CC(NC(=O)c3ccc(Cl)c(F)c3)(C1)C2 [Example 47, 4-chloro-3-fluoro-N-[3-[(1S)-2-(4-fluoroanilino)-1-methyl-2-oxo-ethyl]-1-bicyclo[1.1.1]pentanyl]benzamide]
8 | 6.40 | CC(C(=O)Nc1ccc(F)cc1)C12CC(NC(=O)c3cnc(Cl)cn3)(C1)C2 (stereo not shown) [Example 140, 5-chloro-N-[3-[2-(4-fluoroanilino)-1-methyl-2-oxo-ethyl]-1-bicyclo[1.1.1]pentanyl]pyrazine-2-carboxamide]
9 | 7.71 | C[C@H](C(=O)Nc1ccc(F)cc1)C12CC(NC(=O)c3ccc4ccccc4c3)(C1)C2 [Example 148, (S)-N-(3-(1-((4-fluorophenyl)amino)-1-oxopropan-2-yl)bicyclo[1.1.1]pentan-1-yl)-2-naphthamide]
10 | 8.48 | Cc1cc(C(=O)NC23CC([C@H](C)C(=O)Nc4ccc(F)cc4)(C2)C3)ccc1Cl [Example 50, 4-chloro-N-[3-[(1S)-2-(4-fluoroanilino)-1-methyl-2-oxo-ethyl]-1-bicyclo[1.1.l]pentanyl]-3-methyl-benzamide]
11 | 8.20 | O=C(NC12CC(C3(C(=O)Nc4ccc(F)cc4)CCC3)(C1)C2)c1cccc(Cl)c1 [Example 3, 3-Chloro-N-(3-(1-((4-fluorophenyl)carbamoyl)cyclobutyl)bicyclo [1.1.1]pentan-1-yl) Benzamide]
12 | 7.75 | CCc1cc(C(=O)NC23CC(C(C)C(=O)Nc4ccc(F)cc4)(C2)C3)no1 (stereo not shown) [Example 110, 5-ethyl-N-[3-[2-(4-fluoroanilino)-1-methyl-2-oxo-ethyl]-1-bicyclo[1.1.1]pentanyl]isoxazole-3-carboxamide]
13 | 7.05 | Cc1ccnc(C(=O)NC23CC(C(C)C(=O)Nc4ccc(F)cc4)(C2)C3)c1 (stereo not shown) [Example 118, N-[3-[2-(4-fluoroanilino)-1-methyl-2-oxo-ethyl]-1-bicyclo[1.1.1]pentanyl]-4-methyl-pyridin-1-ium-2-carboxamide]
14 | 7.94 | Cc1ccc(C(=O)NC23CC([C@H](C)C(=O)Nc4ccc(F)cc4)(C2)C3)nc1C [Example 64, N-[3-[(1S)-2-(4-fluoroanilino)-1-methyl-2-oxo-ethyl]-1-bicyclo[1.1.1]pentanyl]-5,6-dimethyl-pyridin-1-ium-2-carboxamide]
15 | 6.90 | CC(C(=O)Nc1ccc(F)cc1)C12CC(NC(=O)c3cc(C4CC4)on3)(C1)C2 (stereo not shown) [Example 120, 5-cyclopropyl-N-[3-[2-(4-fluoroanilino)-1-methyl-2-oxo-ethyl]-1-bicyclo[1.1.1]pentanyl]isoxazole-3-carboxamide]
16 | 7.39 | CC(C(=O)Nc1ccc(F)cc1)C12CC(NC(=O)c3cc(Cl)ccn3)(C1)C2 (stereo not shown) [Example 112, 4-chloro-N-[3-[2-(4-fluoroanilino)-1-methyl-2-oxo-ethyl]-1-bicyclo[1.1.1]pentanyl]pyridin-1-ium-2-carboxamide]
17 | 6.57 | CC(C(=O)Nc1ccc(F)cc1)C12CC(NC(=O)c3cccc4cnccc34)(C1)C2 (stereo not shown) [Example 134, N-[3-[2-(4-fluoroanilino)-1-methyl-2-oxo-ethyl]-1-bicyclo[1.1.1]pentanyl]isoquinolin-2-ium-5-carboxamide]
18 | 6.91 | C[C@@H](C(=O)Nc1ccc(F)cc1)C12CC(NC(=O)c3ccc(F)c(Cl)c3)(C1)C2 [Example 35, 3-chloro-4-fluoro-N-[3-[(1R)-2-(4-fluoroanilino)-1-methyl-2-oxo-ethyl]-1-bicyclo[1.1.1]pentanyl]benzamide]
19 | 6.38 | CC(C(=O)Nc1ccc(F)cc1)C12CC(NC(=O)c3cccnc3)(C1)C2 (stereo not shown) [Example 142, N-[3-[2-(4-fluoroanilino)-1-methyl-2-oxo-ethyl]-1-bicyclo[1.1.1]pentanyl]pyridin-1-ium-3-carboxamide]
20 | 6.82 | C[C@@H](C(=O)Nc1ccc(F)cc1)C12CC(NC(=O)c3ccc(F)c(F)c3)(C1)C2 [Example 43, 3,4-difluoro-N-[3-[(1R)-2-(4-fluoroanilino)-1-methyl-2-oxo-ethyl]-1-bicyclo[1.1.1]pentanyl]benzamide]
21 | 7.47 | CC(C(=O)Nc1ccc(F)cc1)C12CC(NC(=O)c3cccc4cncn34)(C1)C2 (stereo not shown) [Example 111, N-[3-[2-(4-fluoroanilino)-1-methyl-2-oxo-ethyl]-1-bicyclo[1.1.1]pentanyl]imidazo[1,5-a]pyridin-2-ium-5-carboxamide]
22 | 6.88 | CC(C(=O)Nc1ccc(F)cc1)C12CC(NC(=O)c3cccc4c3CC(=O)N4)(C1)C2 (stereo not shown) [Example 121, N-[3-[2-(4-fluoroanilino)-1-methyl-2-oxo-ethyl]-1-bicyclo[1.1.1]pentanyl]-2-oxo-indoline-4-carboxamide]
23 | 7.96 | Cc1ccc(C(=O)NC23CC([C@H](C)C(=O)Nc4ccc(F)cc4)(C2)C3)nc1Cl [Example 61, 6-chloro-N-[3-[(1S)-2-(4-fluoroanilino)-1-methyl-2-oxo-ethyl]-1-bicyclo[1.1.1]pentanyl]-5-methyl-pyridin-1-ium-2-carboxamide]
24 | 7.17 | CC(C(=O)Nc1ccc(F)cc1)C12CC(NC(=O)c3noc4c3CCCC4)(C1)C2 (stereo not shown) [Example 115, N-[3-[2-(4-fluoroanilino)-1-methyl-2-oxo-ethyl]-1-bicyclo[1.1.1]pentanyl]-4,5,6,7-tetrahydro-1,2-benzoxazole-3-carboxamide]
25 | 7.08 | O=C(NC1(C23CC(NC(=O)c4ccc(Cl)cn4)(C2)C3)CC1)c1ccc(F)cc1 [Example 25, 5-chloro-N-(3-(1-(4-fluorobenzamido)cyclopropyl)bicyclo[1.1.1]pentan-1-yl)picolinamide]
